Measurements taken from patent US10732173B2, “Use of aldehyde dehydrogenase as biomarker for beta-cell dysfunction and loss” (THE TRUSTEES OF COLUMBIA UNIVERSITY IN THE CITY OF NEW YORK, priority 2015, dated 2020).

Test system: MIN6 cells overexpressing ALDH1A3
Test: Glucose-stimulated insulin secretion in the presence of the ALDH inhibitor DEAB
Format: cell-based, mouse
Settings: MIN6 cells overexpressing ALDH1A3, in the presence of DEAB (FIG. 12F)

CCN(CC)c1ccc(C=O)cc1 [DEAB, N,N-diethylaminobenzaldehyde] was tested, and the “effect on insulin secretion” value was “did not detect an effect”.
